For seven molecules, IC50 results are on record in patent publication US20250136570A1 (Tango Therapeutics, Inc., priority 2021, published 2025).

In one experiment the target is Recombinant HDAC1 (Homo sapiens (Human), UniProt Q13547). The experiment in a line: HDAC1 inhibition, Fluor de Lys fluorescent enzyme assay. The experiment is classed as biochemical. Conditions: 3 hours pre-incubation at room temp; 6 nM enzyme; 16 μM Fluor de Lys substrate; duplicate. The procedure, abridged: (§1)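 Enzyme (HDAC1 6 nM, HDAC3/NCor2 1.2 nM final) pre-incubated with compound 3 h at ~22 °C in Tris pH 8 buffer with 0.01% BSA. Reaction run 1 h with 16 μM Fluor de Lys substrate and stopped with TSA-containing developer. Fluorescence read at Ex 360/Em 460; IC50 from an occupancy equation with Hill coefficient, in duplicate.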

The next experiment concerns the target HDAC3/NCor2 (Homo sapiens (Human), UniProt O15379). The experiment in a line: HDAC3 inhibition, Fluor de Lys fluorescent enzyme assay. The following applies: 3 hours pre-incubation at room temp; 1.2 nM enzyme; 16 μM Fluor de Lys substrate; duplicate. The experiment is classed as biochemical. In a few lines:
as §1

Some results are limits rather than exact numbers.

Usually IC50 stands for the concentration at which inhibition is half-maximal.

Chain of Recombinant HDAC1 (Q13547 whole entry): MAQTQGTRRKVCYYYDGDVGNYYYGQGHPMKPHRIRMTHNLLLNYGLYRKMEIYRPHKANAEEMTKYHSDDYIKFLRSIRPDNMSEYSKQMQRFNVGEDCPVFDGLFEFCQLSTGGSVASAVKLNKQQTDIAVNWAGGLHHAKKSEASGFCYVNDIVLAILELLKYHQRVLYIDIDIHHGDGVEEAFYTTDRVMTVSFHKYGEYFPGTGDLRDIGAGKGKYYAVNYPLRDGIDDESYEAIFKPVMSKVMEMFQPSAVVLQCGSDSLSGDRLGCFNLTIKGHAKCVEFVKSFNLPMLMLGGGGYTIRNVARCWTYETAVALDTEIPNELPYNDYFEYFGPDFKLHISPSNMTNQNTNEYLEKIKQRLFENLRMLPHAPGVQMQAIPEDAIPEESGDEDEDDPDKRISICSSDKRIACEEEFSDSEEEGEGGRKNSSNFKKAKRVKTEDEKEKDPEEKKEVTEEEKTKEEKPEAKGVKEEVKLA
Chain of HDAC3/NCor2 (O15379 whole entry): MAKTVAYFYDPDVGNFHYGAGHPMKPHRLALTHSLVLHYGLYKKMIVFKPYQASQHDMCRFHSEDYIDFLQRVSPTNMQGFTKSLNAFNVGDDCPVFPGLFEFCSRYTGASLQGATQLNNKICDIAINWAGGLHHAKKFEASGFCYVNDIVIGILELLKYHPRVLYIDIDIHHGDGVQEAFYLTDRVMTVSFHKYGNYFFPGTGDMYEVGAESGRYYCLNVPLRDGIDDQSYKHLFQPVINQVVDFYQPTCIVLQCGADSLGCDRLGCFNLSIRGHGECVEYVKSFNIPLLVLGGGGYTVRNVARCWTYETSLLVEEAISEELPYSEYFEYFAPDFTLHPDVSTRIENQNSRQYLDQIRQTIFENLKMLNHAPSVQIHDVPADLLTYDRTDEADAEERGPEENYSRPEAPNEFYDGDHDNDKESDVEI
Chain of HDAC3/NCor2 (Q9Y618 395-489 partner): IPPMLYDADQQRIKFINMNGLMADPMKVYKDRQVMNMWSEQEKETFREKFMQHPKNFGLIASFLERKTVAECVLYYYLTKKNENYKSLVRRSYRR

On to `N=S(=O)(c1ccc(C(=O)Nc2cc(-c3ccc(F)cc3)ccc2N)cc1)c1cnccc1O` (centres unmarked) [Compound 227, N-[2-amino-5-(4-fluorophenyl)phenyl]-4-[(4-hydroxy-3-pyridyl)sulfonimidoyl]benzamide], for which the half-maximal inhibitory concentration (IC50) is < 100 nM on Recombinant HDAC1 and 500 to 2000 nM against HDAC3/NCor2.

For the molecule `Nc1ccc(-c2ccc(F)cc2)cc1NC(=O)c1ccc([S@@]2(=O)=NCCC2)cc1` (stereo in doubt) [Compound 185, N-[2-amino-5-(4-fluorophenyl)phenyl]-4-[rel-(1R)-1-oxo-4,5-dihydro-3H-isothiazol-1-yl]benzamide], the results for the IC50 at Recombinant HDAC1 and at HDAC3/NCor2 were < 100 nM and 500 to 2000 nM, respectively.

For the molecule `N=S(=O)(c1ccccn1)c1ccc(C(=O)Nc2cc(-c3ccc(F)cc3)ccc2N)cn1` (centres unmarked) [Compound 175, N-[2-amino-5-(4-fluorophenyl)phenyl]-6-(2-pyridylsulfonimidoyl)pyridine-3-carboxamide], the IC50 at Recombinant HDAC1 was < 100 nM; at HDAC3/NCor2, 500 to 2000 nM.

Consider `N=[S@](=O)(c1ccc(C(=O)Nc2cc(-c3cccs3)ccc2N)cc1)C1CC1` (single isomer, unassigned) [Compound 114], for which the IC50 at Recombinant HDAC1 was < 100 nM; at HDAC3/NCor2, 500 to 2000 nM.

Regarding `CS(=N)(=O)C1(c2ccc(C(=O)Nc3cc(-c4cccs4)ccc3N)cc2)CC1` (centres unmarked) [Compound 140, N-[2-amino-5-(2-thienyl)phenyl]-4-[1-(methylsulfonimidoyl)cyclopropyl]benzamide], the IC50 on Recombinant HDAC1 was < 100 nM; at HDAC3/NCor2, 500 to 2000 nM.

In the case of `N=S(=O)(c1ccc(C(=O)Nc2cc(-c3ccc(F)cc3)ccc2N)cc1)c1cnccn1` (centres unmarked) [Compound 195, N-[2-amino-5-(4-fluorophenyl)phenyl]-4-(pyrazin-2-ylsulfonimidoyl)benzamide], the IC50 on Recombinant HDAC1 was < 100 nM; against HDAC3/NCor2, 500 to 2000 nM.

As to `CS(=N)(=O)c1coc2cc(C(=O)Nc3cc(-c4ccc(F)cc4)ccc3N)ccc12` (centres unmarked) [Compound 258, N-[2-amino-5-(4-fluorophenyl)phenyl]-3-(methylsulfonimidoyl)benzofuran-6-carboxamide], the IC50 on Recombinant HDAC1 is < 100 nM; at HDAC3/NCor2, 500 to 2000 nM.
